Assay [1] relates to invasion of colorectal cancer cells. Kind of assay: In vivo relative invation (invasion; EV and KITENIN controls, no method described). The note with it: relative to EV (=1); KIT = KITENIN.
The next assay has as its system KAI1 promoter. Put plainly: KAI1 promoter luciferase reporter assay in transfected Caco2 cells. It counts as cell-based, human. The note with it: for fold induction at 1 µM: Homo sapiens, Caco-2, 16 h, read-out: Relative KAI promoter activity.
Setting [2] is: 1 μM compound, 16 hours, transfected Caco2 cells, luciferase activity relative to DMSO control (=1).

Like-named read-outs stand apart in the source and are kept apart here.

On to `CN1CCN(Cc2cccc(C(=O)NCC(=O)c3ccccc3)c2)CC1` [Example 253, 3-((4-methylpiperazin-1-yl)methyl)-N-(2-oxo-2-phenylethyl)benzamide], for which, in assay [1], the “In vivo relative invation” value is given as 1.421. For the same molecule, the fold induction at 1 µM with KAI1 promoter (setting [2]) was 0.963.

As to `C=CCN(CC=C)Cc1cccc(C(=O)NCC(=O)c2ccccc2)c1` [Example 241, 3-((diallylamino)methyl)-N-(2-oxo-2-phenylethyl)benzamide], the “In vivo relative invation” value in assay [1] stood at 1.126. Also, the fold induction at 1 µM with KAI1 promoter (setting [2]) was determined as 1.1.

Turning to `O=C(CNC(=O)c1ccccc1OC1CCN(C(=O)c2cccc([N+](=O)[O-])c2)CC1)c1ccccc1` [Example 195, 2-((1-(3-nitrobenzoyl)piperidin-4-yl)oxy)-N-(2-oxo-2-phenylethyl)benzamide], in assay [1], the “In vivo relative invation” value was 1.139. In the assay on KAI1 promoter (setting [2]), the fold induction at 1 µM was determined as 1.08.

For `CN(C)c1ccc(C(=O)CNS(=O)(=O)c2ccccc2)cc1` [Example 109, N-(2-(4-(dimethylamino)phenyl)-2-oxoethyl)benzenesulfonamide], the “In vivo relative invation” value in assay [1] is 0.9054. For the same molecule, in the assay with KAI1 promoter (setting [2]), the fold induction at 1 µM amounted to 2.89.

As to `CN(Cc1ccccc1)Cc1ccc(C(=O)NCC(=O)c2ccccc2)cc1` [Example 266, 4-((benzyl(methyl)amino)methyl)-N-(2-oxo-2-phenylethyl)benzamide], the “In vivo relative invation” value in assay [1] turned out to be 1.401. Besides, the fold induction at 1 µM with KAI1 promoter (setting [2]) is 2.21.

Regarding `O=C(CNC(=O)C1CCC1)c1ccccc1` [Example 17, N-(2-oxo-2-phenylethyl)cyclobutanecarboxamide], the “In vivo relative invation” value in assay [1] is listed as 0.9288. Moreover, in the assay on KAI1 promoter (setting [2]), the fold induction at 1 µM was found to be 0.98.

Consider `CC(C)Oc1cccc(NC(=O)COc2ccccc2C(=O)NCC(=O)c2ccccc2)c1` [Example 220, 2-(2-((3-isopropoxyphenyl)amino)-2-oxoethoxy)-N-(2-oxo-2-phenylethyl)benzamide], for which, in assay [1], the “In vivo relative invation” value was found to be 0.9324. The fold induction at 1 µM in the assay with KAI1 promoter (setting [2]) was 1.15.

As for `C#CN(C)Cc1cccc(C(=O)NCC(=O)c2ccccc2)c1` [Example 251, 3-((ethynyl(methyl)amino)methyl)-N-(2-oxo-2-phenylethyl)benzamide], the “In vivo relative invation” value in assay [1] is listed as 1.197. Moreover, in the assay on KAI1 promoter (setting [2]), the fold induction at 1 µM was found to be 2.37.

Consider `O=C(CNC(=O)c1ccc(OC(F)(F)F)cc1)c1ccccc1` [Example 38, N-(2-oxo-2-phenylethyl)-4-(trifluoromethoxy)benzamide], for which the “In vivo relative invation” value in assay [1] was determined as 1.119. Moreover, in the assay with KAI1 promoter (setting [2]), the fold induction at 1 µM was 1.57.

On to `CN(C)c1ccc(C(=O)CNC(=O)c2cc(Cl)cc(Cl)c2)cc1` [Example 117, 3,5-dichloro-N-(2-(4-(dimethylamino)phenyl)-2-oxoethyl)benzamide], for which the “In vivo relative invation” value in assay [1] amounted to 1.076. Moreover, the fold induction at 1 µM in the assay with KAI1 promoter (setting [2]) was 1.32.

In the case of `COc1ccc(C(=O)NCC(=O)c2ccc(Cl)cc2)cc1` [Example 62, N-(2-(4-chlorophenyl)-2-oxoethyl)-4-methoxybenzamide], the “In vivo relative invation” value in assay [1] was 1.122. Further, the “Relative KAI promoter activity” value in the assay on KAI1 promoter (setting [2]) came to 1.03.

Consider `CC(C)(C)C(=O)N1CCC(Oc2ccccc2C(=O)NCC(=O)c2ccccc2)CC1` [Example 179, N-(2-oxo-2-phenylethyl)-2-((1-pivaloylpiperidin-4-yl)oxy)benzamide], for which the “In vivo relative invation” value in assay [1] was determined as 1.081. Also, the fold induction at 1 µM in the assay with KAI1 promoter (setting [2]) stood at 0.97.

`O=C(CNC(=O)c1ccccc1OC1CCN(C(=O)CCc2ccccc2)CC1)c1ccccc1` [Example 159, N-(2-oxo-2-phenylethyl)-2-((1-(3-phenylpropanoyl)piperidin-4-yl)oxy)benzamide]: the “In vivo relative invation” value in assay [1] is 1.059. Besides, the fold induction at 1 µM in the assay on KAI1 promoter (setting [2]) is 0.99.

On to `O=C(CNC(=O)C1CCC1)c1ccc(Cl)cc1` [Example 57, N-(2-(4-chlorophenyl)-2-oxoethyl)cyclobutanecarboxamide], for which, in assay [1], the “In vivo relative invation” value is listed as 1.217. In addition, the fold induction at 1 µM with KAI1 promoter (setting [2]) was found to be 0.94.

Regarding `COc1ccc(C(=O)NCC(=O)c2ccccc2)cc1` [Example 12, 4-methoxy-N-(2-oxo-2-phenylethyl)benzamide], the “In vivo relative invation” value in assay [1] was found to be 1.357. For the same molecule, in the assay on KAI1 promoter (setting [2]), the fold induction at 1 µM was determined as 1.75.

Regarding `CCCCN(CCO)Cc1cccc(C(=O)NCC(=O)c2ccccc2)c1` [Example 244, 3-((butyl (2-hydroxyethyl)amino)methyl)-N-(2-oxo-2-phenylethyl)benzamide], the “In vivo relative invation” value in assay [1] was determined as 1.1. For the same molecule, the fold induction at 1 µM in the assay on KAI1 promoter (setting [2]) is 1.51.

Turning to `COc1ccc(NC(=O)COc2ccccc2C(=O)NCC(=O)c2ccccc2)cc1F` [Example 207, 2-(2-((3-fluoro-4-methoxyphenyl)amino)-2-oxoethoxy)-N-(2-oxo-2-phenylethyl)benzamide], the “In vivo relative invation” value in assay [1] came to 1.036. For the same molecule, in the assay on KAI1 promoter (setting [2]), the fold induction at 1 µM is 1.43.

On to `O=C(CNC(=O)c1ccccc1OC1CCN(C(=O)c2cccc(Cl)c2Cl)CC1)c1ccccc1` [Example 198, 2-((1-(2,3-dichlorobenzoyl)piperidin-4-yl)oxy)-N-(2-oxo-2-phenylethyl)benzamide], for which, in assay [1], the “In vivo relative invation” value was determined as 1.15. Besides, in the assay with KAI1 promoter (setting [2]), the fold induction at 1 µM is 0.87.

For `O=C(CNC(=O)c1ccc(F)cc1)c1ccc(Cl)cc1` [Example 45, N-(2-(4-chlorophenyl)-2-oxoethyl)-4-fluorobenzamide], the “In vivo relative invation” value in assay [1] was 1.476. Further, the fold induction at 1 µM in the assay on KAI1 promoter (setting [2]) was determined as 0.84.

`CC(C)CCNC(=O)COc1ccccc1C(=O)NCC(=O)c1ccccc1` [Example 229, 2-(2-(isopentylamino)-2-oxoethoxy)-N-(2-oxo-2-phenylethyl)benzamide]: in assay [1], the “In vivo relative invation” value is recorded as 1.245. Besides, the fold induction at 1 µM in the assay on KAI1 promoter (setting [2]) is 1.06.

Regarding `O=C(CNC(=O)c1ccccc1OC1CCN(C(=O)c2cccc(Cl)c2)CC1)c1ccccc1` [Example 157, 2-((1-(3-chlorobenzoyl)piperidin-4-yl)oxy)-N-(2-oxo-2-phenylethyl)benzamide], the “In vivo relative invation” value in assay [1] stood at 1.089. Further, the fold induction at 1 µM in the assay on KAI1 promoter (setting [2]) stood at 1.05.

For `COc1ccc(NC(=O)COc2ccccc2C(=O)NCC(=O)c2ccccc2)cc1OC` [Example 216, 2-(2-((3,4-dimethoxyphenyl)amino)-2-oxoethoxy)-N-(2-oxo-2-phenylethyl)benzamide], the “In vivo relative invation” value in assay [1] is on record as 1.255. In addition, in the assay with KAI1 promoter (setting [2]), the fold induction at 1 µM came to 1.2.

Take `COc1ccc(C(=O)NCC(=O)c2ccc(N(C)C)cc2)cc1` [Example 97, N-(2-(4-(dimethylamino)phenyl)-2-oxoethyl)-4-methoxybenzamide]: the “In vivo relative invation” value in assay [1] amounted to 1.024. For the same molecule, the fold induction at 1 µM with KAI1 promoter (setting [2]) was 1.8.

Consider `O=C(CNC(=O)c1cccs1)c1ccc(Cl)cc1` [Example 58, N-(2-(4-chlorophenyl)-2-oxoethyl)thiophene-2-carboxamide], for which the “In vivo relative invation” value in assay [1] was found to be 1.244. Further, the fold induction at 1 µM in the assay on KAI1 promoter (setting [2]) amounted to 0.91.

For the molecule `O=C(CNC(=O)c1ccc(Cl)cc1)c1cccnc1` [Example 130, 4-chloro-N-(2-oxo-2-(pyridin-3-yl)ethyl)benzamide], the “In vivo relative invation” value in assay [1] is given as 0.9875. Further, the fold induction at 1 µM in the assay on KAI1 promoter (setting [2]) was 1.32.

`O=C(CNC(=O)c1cccc(OC(F)(F)F)c1)c1ccc(Cl)cc1` [Example 82, N-(2-(4-chlorophenyl)-2-oxoethyl)-3-(trifluoromethoxy)benzamide]: in assay [1], the “In vivo relative invation” value was found to be 1.189. Also, the fold induction at 1 µM in the assay with KAI1 promoter (setting [2]) was found to be 0.8.

Take `O=C(CNC(=O)c1ccccc1OC1CCN(C(=O)N2CCOCC2)CC1)c1ccccc1` [Example 171, 2-((1-(morpholine-4-carbonyl)piperidin-4-yl)oxy)-N-(2-oxo-2-phenylethyl)benzamide]: the “In vivo relative invation” value in assay [1] came to 1.191. For the same molecule, in the assay on KAI1 promoter (setting [2]), the fold induction at 1 µM worked out at 1.07.

As to `O=C(COc1ccccc1C(=O)NCC(=O)c1ccccc1)Nc1cccnc1` [Example 208, 2-(2-oxo-2-(pyridin-3-ylamino)ethoxy)-N-(2-oxo-2-phenylethyl)benzamide], the “In vivo relative invation” value in assay [1] stood at 1.184. Further, the fold induction at 1 µM in the assay with KAI1 promoter (setting [2]) was 1.14.

For `O=C(CNS(=O)(=O)c1ccc(F)cc1)c1ccc(N2CCOCC2)cc1` [Example 146, 4-fluoro-N-(2-(4-morpholinophenyl)-2-oxoethyl)benzenesulfonamide], the “In vivo relative invation” value in assay [1] worked out at 0.7474. Also, in the assay on KAI1 promoter (setting [2]), the fold induction at 1 µM turned out to be 1.16.

Consider `CC(C)(C)CC(=O)NCC(=O)c1ccc(Cl)cc1` [Example 60, N-(2-(4-chlorophenyl)-2-oxoethyl)-3,3-dimethylbutanamide], for which the “In vivo relative invation” value in assay [1] is reported as 0.9713. In addition, the fold induction at 1 µM with KAI1 promoter (setting [2]) stood at 0.81.

As to `O=C(CNS(=O)(=O)c1ccc(Cl)cc1)c1ccc(N2CCOCC2)cc1` [Example 147, 4-chloro-N-(2-(4-morpholinophenyl)-2-oxoethyl)benzenesulfonamide], the “In vivo relative invation” value in assay [1] is reported as 0.9524. Moreover, in the assay on KAI1 promoter (setting [2]), the fold induction at 1 µM amounted to 1.1.

On to `O=C(CNC(=O)c1ccc(CN2CCC(N3CCCCC3)CC2)cc1)c1ccccc1` [Example 260, 4-([1,4′-bipiperidin]-1′-ylmethyl)-N-(2-oxo-2-phenylethyl)benzamide], for which, in assay [1], the “In vivo relative invation” value came to 1.092. Also, the fold induction at 1 µM in the assay with KAI1 promoter (setting [2]) is 1.33.

Regarding `O=C(CNC(=O)c1ccccc1Cl)c1ccccc1` [Example 6, 2-chloro-N-(2-oxo-2-phenylethyl)benzamide], the “In vivo relative invation” value in assay [1] was 1.144. The fold induction at 1 µM in the assay on KAI1 promoter was 1.91.

For the molecule `O=C(CNC(=O)c1ccccc1C(F)(F)F)c1ccc(Cl)cc1` [Example 73, N-(2-(4-chlorophenyl)-2-oxoethyl)-2-(trifluoromethyl)benzamide], in assay [1], the “In vivo relative invation” value was 1.116. Further, the fold induction at 1 µM with KAI1 promoter (setting [2]) turned out to be 0.99.

As for `O=C(CNC(=O)c1cc(C(F)(F)F)cc(C(F)(F)F)c1)c1ccccc1` [Example 29, N-(2-oxo-2-phenylethyl)-3,5-bis(trifluoromethyl)benzamide], the “In vivo relative invation” value in assay [1] is 1.026. Also, the fold induction at 1 µM in the assay on KAI1 promoter (setting [2]) came to 0.9.

The record behind these values is patent US20230150924A1, “NOVEL COMPOUND HAVING CANCER METASTASIS INHIBITORY ACTIVITY, PREPARATION METHOD THEREFOR, AND PHARMACEUTICAL COMPOSITION FOR INHIBITING CANCER METASTASIS AND INVASION OR TREATING COLORECTAL CANCER, COMPRISING COMPOUND” (CELLGENTEK CO., LTD., priority 2019, published 2023).
